Data from patent US20230212549A1, “COMPOUNDS COMPRISING A […] LIGAND AND USE THEREOF” (priority 2021, published 2023).
Numbered stars: 1 amine (or outer) side, 2 acyl side, 3 side chain; on linkers, the order of the positions; unused ones are H or OH. Bridge positions count the residues as written; N and C are the ends. Square brackets hold non-standard residues; d marks the D form. Peptide text beside a SMILES is read from it. * marks the point of attachment. ξ: configuration not given here. X7 = O=C(CCP(=O)(O)CN1CCN(CP(=O)(O)CO)CCN(CP(=O)(O)CO)CC1)NCCSCc1cc(C[*:1])cc(C[*:2])c1; DOTA = O=C(O)CN1CCN(CC(=O)O)CCN(CC(=O)*)CCN(CC(=O)O)CC1; mXylylene = c1cc(C[*:1])cc(C[*:2])c1; NMeF = CN[C@@H](Cc1ccccc1)C(=O)O; Tic = O=C(O)[C@@H]1Cc2ccccc2CN1; Hexanoyl = CCCCCC(=O)*; Nleu = CC(C)CNCC(=O)O; Ahx = NCCCCCC(=O)O; ξC = NC(CS)C(=O)O

What was measured:
[1] = target: Human recombinant FAP (Homo sapiens, UniProt Q12884); test: FRET-based FAP protease activity assay; assay type: biochemical; design: purchased R&D systems 3715-SE
Sequence of Human recombinant FAP (Q12884 whole entry): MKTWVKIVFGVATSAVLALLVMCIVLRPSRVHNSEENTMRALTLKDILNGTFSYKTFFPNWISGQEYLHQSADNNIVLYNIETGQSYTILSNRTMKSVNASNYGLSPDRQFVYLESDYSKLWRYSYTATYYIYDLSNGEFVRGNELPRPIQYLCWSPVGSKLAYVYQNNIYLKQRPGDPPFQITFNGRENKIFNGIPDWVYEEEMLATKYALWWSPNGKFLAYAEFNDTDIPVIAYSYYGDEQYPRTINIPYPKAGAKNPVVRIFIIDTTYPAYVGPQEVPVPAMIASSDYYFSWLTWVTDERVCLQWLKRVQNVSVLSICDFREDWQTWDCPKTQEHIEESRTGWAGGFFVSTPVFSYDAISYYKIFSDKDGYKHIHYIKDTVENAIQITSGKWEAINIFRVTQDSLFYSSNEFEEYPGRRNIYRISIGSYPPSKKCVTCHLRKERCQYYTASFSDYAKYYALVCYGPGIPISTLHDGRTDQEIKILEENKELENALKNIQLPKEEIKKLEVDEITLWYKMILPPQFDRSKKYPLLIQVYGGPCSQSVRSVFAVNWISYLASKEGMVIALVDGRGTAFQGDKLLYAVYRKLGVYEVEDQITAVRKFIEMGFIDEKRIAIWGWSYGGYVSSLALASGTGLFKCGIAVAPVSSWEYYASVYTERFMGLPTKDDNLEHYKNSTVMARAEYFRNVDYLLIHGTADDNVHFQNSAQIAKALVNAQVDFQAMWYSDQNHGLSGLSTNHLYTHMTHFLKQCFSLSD

[2] = target: T1, FAP-expressing human WI-38 fibroblasts (Homo sapiens, UniProt Q12884); test: Competitive FACS binding assay
T1 construct: FAP-expressing human WI-38 fibroblasts (ECACC) were cultured in EMEM; host or cells: WI-38 human fibroblasts
T1 sequence (Q12884 whole entry): as above
Description: Cells were analyzed in an Attune NxT flow cytometer. […] […].
Cells were analyzed in an Attune NxT flow cytometer. […]

[3] = pIC50 Category (Activity), FRET-based FAP protease activity assay, recombinant human FAP, 37° C.
[4] = pIC50 Category (Activity), FRET-peptide substrate, 37° C.

Row | SMILES | IC50 [1, 3] [µM] | IC50 [2] [µM] | IC50 [1, 4] [µM] | IC50 ([1]; pIC50 Category (activity), Recombinant human FAP) [µM]
1 | CCCCCC(=O)N[C@H]1CSCc2cccc(c2)CSC[C@@H](C(N)=O)NC(=O)[C@@H]2Cc3ccccc3CN2C(=O)[C@H](CCC(=O)O)NC(=O)[C@H]([C@@H](C)O)NC(=O)[C@@H]2CCCN2C(=O)[C@@H]2CCCN2C1=O [3BP-3359, Hex-[Cys(3MeBn)-Pro-Pro-Thr-Glu-Tic-Cys]-NH2] (Hexanoyl-CPPTE[Tic]C-NH2; linker 1-7 via mXylylene) | 0.1 to 0.794 | > 1 |  | 
2 | CCCCCC(=O)N[C@H]1CSCc2cc(CSCCNC(=O)CCP(=O)(O)CN3CCN(CP(=O)(O)CO)CCN(CP(=O)(O)CO)CC3)cc(c2)CSCC(C(=O)O)NC(=O)[C@H](Cc2ccccc2)NC(=O)[C@H](CCC(=O)O)NC(=O)[C@H]([C@@H](C)O)NC(=O)[C@@H]2CCCN2C(=O)[C@@H]2CCCN2C1=O (stereo partly drawn) [3BP-4818, Hex-[Cys(tMeBn(NOPO-AET))-Pro-Pro-Thr-Glu-Phe-Cys]-OH] (Hexanoyl-CPPTEF[ξC]-OH; linker 1-7 via X7) |  | 0.01 to 0.0794 |  | 0.01 to 0.0794
3 | CSCC[C@H](NC(C)=O)C(=O)N[C@@H]1CSCc2cccc(c2)CSC[C@@H](C(=O)N[C@@H](CC(=O)O)C(=O)N[C@@H](Cc2c[nH]cn2)C(=O)N[C@@H](Cc2ccccc2)C(=O)N[C@@H](CCCNC(=N)N)C(=O)N[C@@H](CC(=O)O)C(N)=O)NC(=O)[C@H](Cc2ccccc2)NC(=O)[C@H](CCC(=O)O)NC(=O)[C@H]([C@@H](C)O)NC(=O)[C@@H]2CCCN2C(=O)[C@@H]2CCCN2C1=O [3BP-3175, Ac-Met-[cys(3MeBn)-Pro-Pro-Thr-Glu-Phe-Cys]-Asp-His-Phe-Arg-Asp-NH2] (Ac-M[dC]PPTEFCDHFRD-NH2; linker 2-8 via mXylylene) | < 0.01 | < 0.01 |  | 
4 | C[C@@H](O)[C@@H]1NC(=O)[C@@H]2CCCN2C(=O)[C@@H]2CCCN2C(=O)[C@@H](NC(=O)CCCCCNC(=O)CN2CCN(CC(=O)O)CCN(CC(=O)O)CCN(CC(=O)O)CC2)CSCc2cccc(c2)CSC[C@@H](C(=O)N[C@@H](CC(=O)O)C(=O)N[C@@H](Cc2c[nH]cn2)C(=O)N(C)[C@@H](Cc2ccccc2)C(=O)N[C@@H](CCCNC(=N)N)C(=O)N[C@@H](CC(=O)O)C(N)=O)NC(=O)[C@H](Cc2ccccc2)NC(=O)[C@H](CCC(=O)O)NC1=O [3BP-3266, DOTA-Ahx-[Cys(3MeBn)-Pro-Pro-Thr-Glu-Phe-Cys]-Asp-His-Nmf-Arg-Asp-NH2] ({DOTA-Ahx}-CPPTEFCDH[NMeF]RD-NH2; linker 1-7 via mXylylene) | 0.1 to 0.794 | 0.1 to 0.794 |  | 
5 | CCCCCC(=O)N[C@H]1CSCc2cccc(c2)CSC[C@@H](C(N)=O)NC(=O)[C@H](Cc2ccccc2)NC(=O)[C@H](CCC(N)=O)NC(=O)[C@H]([C@@H](C)O)NC(=O)[C@@H]2CCCN2C(=O)CN(CC(C)C)C1=O [3BP-3749, Hex-[Cys(3MeBn)-Nleu-Pro-Thr-Gln-Phe-Cys]-NH2] (Hexanoyl-C[Nleu]PTQFC-NH2; linker 1-7 via mXylylene) | > 1 | > 1 |  | 

Second part, led by results:

Row | IC50 [1, 3] [µM] | IC50 [2] [µM] | IC50 [1, 4] [µM] | SMILES | IC50 ([1]; pIC50 Category (activity), Recombinant human FAP) [µM]
6 |  | 0.1 to 0.794 | 0.1 to 0.794 | C[C@@H](O)[C@@H]1NC(=O)[C@@H]2CCCN2C(=O)[C@@H]2CCCN2C(=O)[C@@H](NC(=O)C2CCOC2)CSCc2cc(CSCCNC(=O)CN3CCN(CC(=O)O)CCN(CC(=O)O)CCN(CC(=O)O)CC3)cc(c2)CSC[C@@H](C(=O)O)NC(=O)[C@H](Cc2ccccc2)NC(=O)[C@H](CCC(N)=O)NC1=O (stereo partly drawn) [3BP-3919, Fur-[Cys(tMeBn(DOTA-AET))-Pro-Pro-Thr-Gln-Phe-Cys]-OH] | 
7 |  | 0.01 to 0.0794 | 0.01 to 0.0794 | C=CCCC(=O)N[C@H]1CSCc2cc(CSCCNC(=O)CN3CCN(CC(=O)O)CCN(CC(=O)O)CCN(CC(=O)O)CC3)cc(c2)CSC[C@@H](C(=O)O)NC(=O)[C@H](Cc2ccccc2)NC(=O)[C@H](CCC(N)=O)NC(=O)[C@H]([C@@H](C)O)NC(=O)[C@@H]2CCCN2C(=O)[C@@H]2CCCN2C1=O [3BP-3914, Peet-[Cys(tMeBn(DOTA-AET))-Pro-Pro-Thr-Gln-Phe-Cys]-OH] | 
8 |  | 0.01 to 0.0794 | 0.01 to 0.0794 | C[C@@H](O)[C@@H]1NC(=O)[C@@H]2CCCN2C(=O)[C@@H]2CCCN2C(=O)[C@@H](NC(=O)[C@H]2CCCO2)CSCc2cc(CSCCNC(=O)CN3CCN(CC(=O)O)CCN(CC(=O)O)CCN(CC(=O)O)CC3)cc(c2)CSC[C@@H](C(=O)O)NC(=O)[C@H](Cc2ccccc2)NC(=O)[C@H](CCC(N)=O)NC1=O [3BP-3911, Rth-[Cys(tMeBn(DOTA-AET))-Pro-Pro-Thr-Gln-Phe-Cys]-OH] | 
9 | 0.1 to 0.794 | 0.1 to 0.794 |  | C[C@@H](O)[C@@H]1NC(=O)[C@@H]2CCCN2C(=O)[C@@H]2CCCN2C(=O)[C@@H](NC(=O)CCCC(=O)O)CSCc2cccc(c2)CSC[C@@H](C(N)=O)NC(=O)[C@H](Cc2ccccc2)NC(=O)[C@H](CCC(N)=O)NC1=O [3BP-3765, HO-Glutar-[Cys(3MeBn)-Pro-Pro-Thr-Gln-Phe-Cys]-NH2] | 
